# From patent US7563787B2, “Substituted pyrazole compounds” (Miikana Therapeutics, Inc., priority 2005, dated 2009)
# Experiments:
# recombinant Aurora A = molecular target: T1, recombinant Aurora A (Homo sapiens, UniProt O14965); assay: Aurora A (Aurora 2) Inhibition Assay (Z'-Lyte); format: biochemical; details: 100 μM compound; ATP 10 μM; 1 h
# T1 construct: purchased Upstate, Lake Placid, N.Y
# T1 sequence (O14965 1-403): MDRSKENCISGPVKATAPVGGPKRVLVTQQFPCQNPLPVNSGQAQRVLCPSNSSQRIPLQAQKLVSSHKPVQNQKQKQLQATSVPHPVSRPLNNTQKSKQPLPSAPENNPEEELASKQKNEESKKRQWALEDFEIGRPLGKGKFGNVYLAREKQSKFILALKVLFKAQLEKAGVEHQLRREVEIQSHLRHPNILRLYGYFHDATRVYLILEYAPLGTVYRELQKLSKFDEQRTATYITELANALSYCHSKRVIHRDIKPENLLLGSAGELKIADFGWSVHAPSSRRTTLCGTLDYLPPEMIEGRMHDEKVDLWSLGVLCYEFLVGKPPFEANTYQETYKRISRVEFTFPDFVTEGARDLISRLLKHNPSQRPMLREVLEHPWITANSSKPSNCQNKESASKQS
# Description: Compounds were tested for their potency against recombinant Aurora A (Upstate, Lake Placid, N.Y.) using the PanVera Z'-Lyte kinase assay kit-Ser/[…] peptide (Invitrogen, Carlsbad, Calif.). […] Assays were carried out in half-area 96-well white polystyrene assay plates (Corning, Corning, N.Y.) in a final volume of 20 μl. The reaction was allowed to proceed for 1 h at room temperature in the dark, at which point the development reagent and stop reagent were added according to the manufacturer's instructions. Coumarin (Ex. 400 nm, Em. 465 nm) and fluorescein (Ex. 400 nm, Em. 565 nm) fluorescence values were measured on a SpectraFluor Plus plate reader (Tecan, Durham, N.C.). The emission ratio (coumarin/fluorescein) was determined and used to calculate the percent phosphorylation for each well. […] Typically 20-40% of the substrate was phosphorylated in wells without inhibitor. Dose-response curves of relative Aurora A activity vs. inhibitor concentration were plotted with Grafit (Erithacus Software, Horley, Surrey, UK).
# HCT-116 cell growth = assay: Whole Cell Cytotoxicity Assay: Sulforhodamine B; format: cell-based, Human; details: 100 μM compound, 96 hours, SRB staining; for inhibition at 100 µM: Homo sapiens, HCT-116
# Description: Human tumor-derived cell lines, HCT116 or MCF7 (ATCC) were plated in a 96 well plate in DMEM containing 10% fetal bovine serum and 2 mM L-glutamine at a density of 500 HCT116 cells or 1,000 MCF7 cells per well and incubated at 37° C., 5% CO2, for 24 hours prior to the addition of experimental compounds. Compounds were added using the dilution series indicated to duplicate plates and the cells were incubated in media plus compound for 96 hours. An additional plate was fixed in 10% TCA at the time of the addition of compound to provide a measurement of the cell population at time zero, the time of drug addition. Following the 96 hour incubation, cells were fixed in situ by gently aspirating off the culture media and then adding 50 ul of ice cold 10% TCA per well and incubation at 4° C. for 60 minutes. The plates were washed with tap water five times and allowed to air dry for 5 minute. 50 ul of a 0.4% (w/v) Sulforhodamine B solution in 1% (v/v) acetic acid was added per well and the cells were incubated for 30 minutes at room temperature. Following staining, plates were washed four times with 1% acetic acid to remove any unbound dye and then allowed to air dry for 5 minutes. The stain was solubilized with 100 ul of 10 mM Tris pH 10.5 per well and placed on an orbital rotator for 5 minutes. The absorbance was read at 570 nm. Percentage growth was calculated using the absorbance readings from the time zero plate (Tz) and the dilution series plate […] which included a column of cells grown in media without compound as a control (C) using the formulas: [(Ti−Tz)/(C−Tz)]×100 for concentrations for which Ti>/=Tz [(Ti−Tz)/Tz]×100 for concentrations for which Ti<Tz.
# Three dose response parameters were calculated for each experimental agent. Growth inhibition of 50% (GI50) was calculated from [(Ti−Tz)/(C−Tz)]×100=50, which was the drug concentration resulting in a 50% reduction in the net protein increase (as measured by SRB staining) in control cells during the drug incubation. The drug concentration resulting in total growth inhibition (TGI) was calculated from Ti=Tz. The LC50 (concentration of drug resulting in a 50% reduction in the measured protein at the end of the drug treatment as compared to that at the beginning) indicating a net loss of cells following treatment was calculated from [(Ti−Tz)/Tz]×100=−50. Values are calculated for each of these three parameters if the level of activity was reached; however, if the effect was not reached or was exceeded, the value for that parameter is expressed as greater or less than the maximum or minimum concentration tested.
Molecule,% Inhibition of Aurora A @ 100 μM (recombinant Aurora A) [%],inhibition at 100 µM (recombinant Aurora A) [%],% Inhibition of HCT-116 cell growth @ 100 μM (HCT-116 cell growth) [%],inhibition at 100 µM (HCT-116 cell growth) [%]
"Cc1cc(Nc2nc(/C=C/c3ccccc3)nc(N3CCN(C)CC3)c2[N+](=O)[O-])[nH]n1 [Example 4, 6-(4-methylpiperazin-1-yl)-N-(3-methyl-1H-pyrazol-5-yl)-5-nitro-2-[(E)-2-phenylvinyl]pyrimidin-4-amine]",–,91,–,87
Cc1cc(Nc2nc(/C=C/c3ccccc3)nc(Nc3cc(C)n[nH]3)c2N)[nH]n1 [Example 11],–,98,–,99
"Cc1cc(Nc2nc(/C=C/c3ccccc3)nc(N3CCOCC3)c2N)[nH]n1 [Example 12, N-(3-methyl-1H-pyrazol-5-yl)-6-(morpholin-4-yl)-2-[(E)-2-phenylvinyl]pyrimidin-4,5-diamine]",–,100,–,99
"Cc1cc(Nc2nc(/C=C/c3ccccc3)nc(N3CCNCC3)c2N)[nH]n1 [Example 13, N-(3-methyl-1H-pyrazol-5-yl)-6-(piperazin-1-yl)-2-[(E)-2-phenylvinyl]pyrimidin-4,5-diamine]",–,93,–,–
"Cc1cc(Nc2nc(/C=C/c3ccccc3)nc(N3CCCCC3)c2N)[nH]n1 [Example 14, N-(3-methyl-1H-pyrazol-5-yl)-6-(piperidin-1-yl)-2-[(E)-2-phenylvinyl]pyrimidin-4,5-diamine]",–,98,–,–
"Cc1cc(Nc2nc(/C=C/c3ccccc3)nc(N3CCCC3)c2N)[nH]n1 [Example 15, N-(3-methyl-1H-pyrazol-5-yl)-6-(pyrrolidin-1-yl)-2-[(E)-2-phenylvinyl]pyrimidin-4,5-diamine]",–,100,–,91
"CCOC(=O)c1nc(/C=C/c2ccccc2)nc(Nc2cc(C)n[nH]2)c1[N+](=O)[O-] [Example 17, ethyl 6-[(3-methyl-1H-pyrazol-5-yl)amino]-5-nitro-2-[(E)-2-phenylvinyl]pyrimidine-4-carboxylate]",–,62,–,93
"CCOC(=O)c1nc(/C=C/c2ccc(Cl)cc2)nc(Nc2cc(C)n[nH]2)c1N [Example 19, ethyl 5-amino-2-[(E)-2-(4-chlorophenyl)vinyl]-6-[(3-methyl-1H-pyrazol-5-yl)amino]pyrimidine-4-carboxylate]",–,99,–,96
"CCOC(=O)c1nc(/C=C/c2ccc(C(F)(F)F)cc2)nc(Nc2cc(C)n[nH]2)c1N [Example 20, ethyl 5-amino-6-[(3-methyl-1H-pyrazol-5-yl)amino]-2-{(E)-2-[4-(trifluoromethyl)phenyl]vinyl}pyrimidine-4-carboxylate]",–,77,–,97
"CCOC(=O)c1nc(/C=C/c2ccc(C)cc2)nc(Nc2cc(C)n[nH]2)c1N [Example 21, ethyl 5-amino-2-[(E)-2-(4-methylphenyl)vinyl]-6-[(3-methyl-1H-pyrazol-5-yl)amino]pyrimidine-4-carboxylate]",–,100,–,93
"CCOC(=O)c1nc(/C=C/c2cccc(F)c2)nc(Nc2cc(C)n[nH]2)c1N [Example 22, ethyl 5-amino-2-[(E)-2-(3-fluorophenyl)vinyl]-6-[(3-methyl-1H-pyrazol-5-yl)amino]pyrimidine-4-carboxylate]",–,97,–,85

# Second part, led by results:
% Inhibition of Aurora A @ 100 μM (recombinant Aurora A) [%],inhibition at 100 µM (recombinant Aurora A) [%],Molecule,% Inhibition of HCT-116 cell growth @ 100 μM (HCT-116 cell growth) [%],inhibition at 100 µM (HCT-116 cell growth) [%]
100,–,2-(4-methoxystyryl)-N-(5-methyl-1H-pyrazol-3-yl)-6-(4-methylpiperazin-1-yl)pyrimidin-4-amine [Example 161],93,–
–,99,"CCOC(=O)c1nc(/C=C/c2ccc(OC)cc2)nc(Nc2cc(C)n[nH]2)c1N [Example 23, ethyl 5-amino-2-[(E)-2-(4-methoxyphenyl)vinyl]-6-[(3-methyl-1H-pyrazol-5-yl)amino]pyrimidine-4-carboxylate]",–,91
–,100,"Cc1cc(Nc2nc(/C=C/c3ccccc3)nc(C(=O)OC3CCN(C)CC3)c2N)[nH]n1 [Example 24, 1-methylpiperidin-4-yl 5-amino-6-[(3-methyl-1H-pyrazol-5-yl)amino]-2-[(E)-2-phenylvinyl]pyrimidine-4-carboxylate]",–,99
–,100,"Cc1cc(Nc2nc(/C=C/c3ccccc3)nc(C(=O)NCCN3CCOCC3)c2N)[nH]n1 [Example 25, N-(2-morphholin-4-ylethyl)-5-amino-6-[(3-methyl-1H-pyrazol-5-yl)amino]-2-[(E)-2-phenylvinyl]pyrimidine-4-carboxamide]",–,95
–,99,"Cc1cc(Nc2cc(Cl)nc(/C=C/c3ccccc3)n2)n[nH]1 [Example 34, 6-chloro-N-(3-methyl-1H-pyrazol-5-yl)-2-[(E)-2-phenylvinyl]pyrimidin-4-amine]",–,98
–,80,"COC(=O)c1ccc(/C=C/c2nc(Cl)c([N+](=O)[O-])c(Nc3cc(C)[nH]n3)n2)cc1 [Example 37, methyl 4-((E)-2-{4-chloro-6-[(3-methyl-1H-pyrazol-5-yl)amino]-5-nitropyrimidin-2-yl}vinyl)benzoate]",–,–
–,99,"COC(=O)c1ccc(/C=C/c2nc(Nc3cc(C)[nH]n3)c([N+](=O)[O-])c(N3CCN(C)CC3)n2)cc1 [Example 38, methyl 4-((E)-2-{4-(4-methylpiperazin-1-yl)-6-[(3-methyl-1H-pyrazol-5-yl)amino]-5-nitropyrimidin-2-yl}vinyl)benzoate]",–,–
–,100,"COC(=O)c1ccc(/C=C/c2nc(Nc3cc(C)[nH]n3)c(N)c(N3CCN(C)CC3)n2)cc1 [Example 39, methyl 4-((E)-2-{5-amino-4-(4-methylpiperazin-1-yl)-6-[(3-methyl-1H-pyrazol-5-yl)amino]-pyrimidin-2-yl}vinyl)benzoate]",–,97
–,100,"Cc1cc(Nc2cc(N3CCN(C)CC3)nc(/C=C/c3ccc(Cl)cc3)n2)n[nH]1 [Example 49, 2-(4-chlorostyryl)-N-(5methyl-1H-pyrazol-3-yl)-6-(4-methylpiperazin-1-yl)pyrimidin-4-amine]",–,75
–,100,"COc1cc(/C=C/c2nc(Nc3cc(C)[nH]n3)cc(N3CCN(C)CC3)n2)cc(OC)c1 [Example 50, 2-(3,5-dimethoxystyryl)-N-(5-methyl-1H-pyrazol-3-yl)-6-(4-methylpiperazin-1-yl)pyrimidin-4-amine]",–,98
–,100,"Cc1cc(Nc2cc(N3CCOCC3)nc(/C=C/c3ccccc3)n2)n[nH]1 [Example 64, N-(5-methyl-1H-pyrazol-3-yl)-6-morpholino-2-styrylpyrimidin-4-amine]",–,98
–,100,"Cc1cc(Nc2cc(NCCN(C)C)nc(/C=C/c3ccccc3)n2)n[nH]1 [Example 66, N^4-(2-(dimethylamino)ethyl)-N^6-(5-methyl-1H-pyrazol-3-yl)-2-styrylpyrimidine-4,6-diamine]",–,98
–,95,Cc1ccc(/C=C/c2nc(Nc3cc(C)[nH]n3)c([N+](=O)[O-])c(N3CCN(C)CC3)n2)cc1 [Example 169],–,–
–,89,Cc1cc(Nc2nc(/C=C/c3ccc(Cl)cc3)nc(N3CCN(C)CC3)c2[N+](=O)[O-])n[nH]1 [Example 171],–,–
